Like-named read-outs stand apart in the source and are kept apart here.
Experiments:
GEO CRC cell line = assay: SRB proliferation assay, 72 h; assay type: cell-based; details: Homo sapiens
Method: Cell proliferation was evaluated by SRB following exposure to OSI-906 for 72 hours. Cells were plated at an optimized density in 96-well plates, incubated overnight at 37° C., and then exposed to a serial dilution of OSI-906. After 72 hours incubation, cells were fixed with trichloroacetic acid and an SRB was performed as described in materials and methods.
Cell Lines and Culture: Twenty-seven human colon cancer cell lines, were obtained from American Type Culture Collection (Manassas, Va.). The GEO cells were a generous gift from Dr. Fortunato Ciardiello (Cattedra di Oncologia Medica, Dipartimento Medico-Chirurgico di Internistica Clinica e Sperimentale “F Magrassi e A Lanzara,” Seconda Università degli Studi di Napoli, Naples). All cells except GEO were grown in RPMI medium supplemented with 10% fetal bovine serum, 1% non-essential amino acids, 1% penicillin/streptomycin and were maintained at 37° C. in an incubator under an atmosphere containing 5% CO2. GEO cells were grown in DMEM/F12 supplemented with 10% fetal bovine serum, 1% non-essential amino acids, 1% penicillin/streptomycin. The cells were routinely screened for the presence of mycoplasma (MycoAlert, Cambrex Bio Science, Baltimore, Md.) and were exposed to OSI-906 when they reached approximately 70% confluence. OSI-906 was provided by OSI Pharmaceuticals, (Boulder, Colo.) and prepared as a 10 mM stock solution in DMSO.

S6 ribosomal protein = assay: Immunoblotting, pathway activation; assay type: cell-based, human; details: PQIP 0.4 μmol/L 3 h, with or without IGF-2 stimulation
Method: (§1) Immunoprecipitation and Immunoblotting: HT29 and HCT116 CRC cell lines were seeded into 6-well plates, allowed to attach for 24 hours and serum starved overnight. Cells were then exposed to IGF-2 (100 ng/mL) for 10 minutes with or without a 3 hour PQIP (0.4 μmol/L) pretreatment. After treatment cells were rinsed with PBS and scraped into RIPA lysis buffer containing protease inhibitors, EDTA, NaF, and sodium orthovanadate. Total protein was quantified using the BioRad Dc Protein Assay (BioRad, Hercules, Calif.). Total protein (30 μg) was electrophoresed on a 4-20% gradient SDS-polyacrylimide gel then electrophoretically transferred to Immobilon-P (Millipore, Bedford, Mass.). Membranes were blocked for 1 hour in 5% non-fat dry milk (BioRad, Hercules, Calif.) in TBS-Tween (0.1%) prior to overnight incubation at 4° C. with the appropriate primary antibody. Blots were then washed 3×20 minutes in TBS-Tween (0.1%) and were incubated with the appropriate secondary anti-rabbit or anti-mouse IgG1 horseradish peroxidase-linked antibody at 1:20,000 (Jackson ImmunoResearch, West Grove, Pa.) for one hour at room temperature. After three additional washes, the blots were developed by Immobilon Western Chemiluminescent HRP substrate (Millipore, Billerica, Mass.). Anti-IGF1Rβ rabbit polyclonal (Cell Signaling Technology, Danvers, Mass.) was used for immunoprecipitation at a 1:50 dilution. The following primary antibodies were used for immunoblotting (all from Cell Signaling Technology, Danvers, Mass.). Anti-phosphorylated Akt (T308) rabbit polyclonal, anti-phosphorylated S6 ribosomal protein (S235/236) rabbit mAb, anti-phosphorylated p44/42 MAPK (Thr202/Tyr204) rabbit mAb, and anti-phosphorylated tyrosine mouse mAb at 1:1.000. Anti-Akt (pan) rabbit mAb, anti-S6 ribosomal protein rabbit mAb, anti-p44/42 MAP Kinase rabbit mAb, anti Pan-Actin rabbit polyclonal, anti-IGF1Rβ rabbit polyclonal, anti-PARP rabbit polyclonal, and anti-cyclin D1 rabbit polyclonal at 1:5000.
(§2) Effect of PQIP on receptor phosphorylation and pathway activation: Since PQIP is expected to inhibit autophosphorylation of IGF1R, we tested its ability to inhibit IGF-2 mediated activation of the receptor and pathway. One PQIP sensitive and one PQIP resistant CRC cell line were chosen for immunoprecipitation and immunoblotting analysis. Following 18 h serum starvation, HT29 and HCT116 CRC cell lines were stimulated or unstimulated for 10 minutes with 100 ng/mL of IGF-2 with or without a 3 h pre-exposure to PQIP (0.4 μmol/L).

p42/44 MAPK = assay: Immunoblotting, pathway activation; assay type: cell-based, human; details: PQIP 0.4 μmol/L 3 h pre-exposure, IGF-2 100 ng/mL 10 minutes
Method: as §1, §2

Akt = assay: Immunoblotting, pathway activation; assay type: cell-based, human; details: PQIP 0.4 μmol/L 3 h, with or without IGF-2 stimulation
Method: as §1, §2

IGF1R = target: T1, IGF1R (Homo sapiens, UniProt P08069); assay: Immunoprecipitation and immunoblotting, IGF-2 induced receptor autophosphorylation; assay type: cell-based; details: PQIP 0.4 μmol/L 3 h pre-exposure, IGF-2 100 ng/mL 10 minutes
T1 construct: endogenous in cells; host or cells: HT29 and HCT116 CRC cell lines
Source text: Total protein was quantified using the BioRad Dc Protein Assay (BioRad, Hercules, Calif.).

T1 sequence (P08069 31-1367): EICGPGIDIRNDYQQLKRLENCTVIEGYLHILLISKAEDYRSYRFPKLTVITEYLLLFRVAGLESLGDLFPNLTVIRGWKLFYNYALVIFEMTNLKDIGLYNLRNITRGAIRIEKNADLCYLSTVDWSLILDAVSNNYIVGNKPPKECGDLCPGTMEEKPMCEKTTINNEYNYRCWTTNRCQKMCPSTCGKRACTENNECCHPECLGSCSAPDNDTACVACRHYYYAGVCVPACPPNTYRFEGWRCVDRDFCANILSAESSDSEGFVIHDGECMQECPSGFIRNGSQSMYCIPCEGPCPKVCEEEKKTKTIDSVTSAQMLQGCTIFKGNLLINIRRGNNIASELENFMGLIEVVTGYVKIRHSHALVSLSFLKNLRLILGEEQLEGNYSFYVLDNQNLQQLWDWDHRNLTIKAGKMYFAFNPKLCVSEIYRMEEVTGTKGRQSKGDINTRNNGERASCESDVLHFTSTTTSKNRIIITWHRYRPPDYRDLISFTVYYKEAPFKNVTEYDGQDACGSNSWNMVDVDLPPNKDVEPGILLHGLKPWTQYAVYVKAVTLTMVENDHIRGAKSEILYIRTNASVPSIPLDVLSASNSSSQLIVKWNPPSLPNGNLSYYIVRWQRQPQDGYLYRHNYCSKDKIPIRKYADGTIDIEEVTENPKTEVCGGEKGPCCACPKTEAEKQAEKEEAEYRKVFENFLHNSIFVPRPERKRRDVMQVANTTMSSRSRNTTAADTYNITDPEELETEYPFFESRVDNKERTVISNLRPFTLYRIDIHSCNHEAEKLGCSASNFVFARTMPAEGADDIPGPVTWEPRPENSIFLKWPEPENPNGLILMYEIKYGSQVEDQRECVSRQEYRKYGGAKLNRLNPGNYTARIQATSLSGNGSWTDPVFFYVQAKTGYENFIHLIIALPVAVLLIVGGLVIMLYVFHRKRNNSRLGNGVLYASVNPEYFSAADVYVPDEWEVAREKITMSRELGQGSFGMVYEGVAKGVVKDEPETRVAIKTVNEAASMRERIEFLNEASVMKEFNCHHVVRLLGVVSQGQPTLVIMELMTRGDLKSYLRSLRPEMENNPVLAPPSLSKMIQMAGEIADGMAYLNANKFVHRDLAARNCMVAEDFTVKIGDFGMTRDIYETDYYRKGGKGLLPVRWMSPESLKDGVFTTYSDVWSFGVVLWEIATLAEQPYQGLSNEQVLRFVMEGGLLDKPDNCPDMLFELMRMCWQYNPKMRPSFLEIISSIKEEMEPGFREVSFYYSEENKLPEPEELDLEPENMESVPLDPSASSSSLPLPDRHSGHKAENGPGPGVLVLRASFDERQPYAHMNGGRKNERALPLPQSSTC

| Structure (SMILES) | IC50 (GEO CRC cell line; 72 hours, read-out: IC50, proliferation, OSI-906 (SRB)) [nM] | IC50 (GEO CRC cell line; read-out: S/I/R to OSI-906) [nM] | phosphorylation of S6 ribosomal protein (S6 ribosomal protein; HCT116) | phosphorylation of S6 ribosomal protein (S6 ribosomal protein; HT29) | IGF-2 induced phosphorylation of p42/44 MAPK (p42/44 MAPK; HCT116) | IGF-2 induced phosphorylation of p42/44 MAPK (p42/44 MAPK; HT29) | phosphorylation of Akt (Akt; HCT116) | phosphorylation of Akt (Akt; HT29) | IGF-2 induced tyrosine autophosphorylation of IGF1R (IGF1R; HCT116) | IGF-2 induced tyrosine autophosphorylation of IGF1R (IGF1R; HT29) |
| --- | --- | --- | --- | --- | --- | --- | --- | --- | --- | --- |
| C[C@]1(O)C[C@@H](c2nc(-c3ccc4ccc(-c5ccccc5)nc4c3)c3c(N)nccn32)C1 [OSI-906, cis-3-[8-amino-1-(2-phenyl-quinolin-7-yl)-imidazo[1,5-a]pyrazin-3-yl]-1-methyl-cyclobutanol] | ≤ 1500 | ≤ 1500 | – | – | – | – | – | – | – | – |
| CN1CCN([C@H]2C[C@@H](c3nc(-c4ccc5ccc(-c6ccccc6)nc5c4)c4c(N)nccn43)C2)CC1 [PQIP, cis-3-[3-(4-Methyl-piperazin-1-yl)-cyclobutyl]1-(2-phenyl-quinolin-7-yl)-imidazo[1,5-a]pyrazin-8-ylamine] | – | – | inhibits | inhibits | not in resistant HCT116 | inhibited | inhibits | inhibits | almost fully inhibits | almost fully inhibits |
